The values below come from patent US6251894A, “1-(1,2-disubstituted piperidinyl)-4 (fused imidazole)-piperidine derivatives” (Janssen Pharmaceuticals N.V., priority 1995, dated 2001).

The structures appear in SMILES notation. Like-named read-outs stand apart in the source and are kept apart here.

Experiment [1] deals with Substance P Induced Relaxation of the Pig Coronary Arteries. Kind of experiment: Antagonism of substance P induced relaxation of the pig coronary arteries. To be noted: 30 min incubation. How it is done: Antagonism of Substance P Induced Relaxation of the Pig Coronary Arteries
Segments of coronary arteries taken from pigs (killed by injection of an overdose of sodium pentobarbital) were inverted and mounted for recording of isometric tension in organ baths (volume 20 ml) with the endothelium at the outside. The preparations were bathed in Krebs-Henseleit solution. The solution was kept at 37° C. and gassed with a mixture of O2 /CO2 (95/5). After stabilisation of the preparations, prostaglandin F2α (10^-5 M) was administered to induce a contraction. This was repeated until contractile responses became stable. Then prostaglandin F2α was again administered and substance P (3×10^-10 M and 10^-9 M cumulatively) was added. Substance P induced endothelium dependent relaxations. After washing away the agonists, a known concentration of a compound of formula (I) was added. After an incubation period of 30 minutes, prostaglandin F2α (10^-5 M) and the same concentrations of substance P as described above were again administered in the presence of the compound to be tested.

The subject of experiment [2] is Substance P Induced Plasma Extravasation. The experiment is described as follows: Antagonism of substance P induced plasma extravasation in guinea-pigs. Type of experiment: in vivo, guinea-pig. To be noted: Cavia porcellus, sc, s.c., 1 hour prior to substance P. How it is done:
Antagonism of Substance P Induced Plasma Extravasation in Guinea-pigs
Plasma travasation was induced by injection of substance P (2 mg/kg) in the femoral artery of female guinea-pigs. Evans Blue dye (30 mg/kg) was injected simultaneously. The test compound or solvent was administered subcutaneous (s.c.) or orally (p.o.) 1 hour prior to substance P injection. 10 minutes after challenge, the animals were checked for blue colouring (a direct measure for plasma extravasation) of the nose, the forepaws, and the conjunctiva. 30 minutes after challenge, the animals were sacrificed by CO2 gas inhalation and checked for blue colouring of the trachea and the urinary bladder. […]

Where [3] appears, read: test compound concentration 3 × 10^-9 (unit not given).
The mark [4] stands for this setting: 10 min, conjunctiva, read-out: lowest active dose (LAD), conjunctiva.
[5] abbreviates: 10 min, forepaws, read-out: lowest active dose (LAD), forepaws.
[6] abbreviates: 10 min, nose, read-out: lowest active dose (LAD), nose.
Setting [7] is: 0.5 h, trachea, read-out: lowest active dose (LAD), trachea.
The mark [8] stands for this setting: 0.5 h, urinary bladder, read-out: lowest active dose (LAD), urinary bladder.

Consider `Cc1cc(C)cc(C(=O)N2CC[C@@H](N3CCC(=C4c5ccccc5CCn5c(C=O)cnc54)CC3)C[C@H]2Cc2ccccc2)c1` (relative stereo) [Compound 24], for which, in experiment [1] (setting [3]), the “% inhibition of the response to 10^-9 M substance P” value was determined as 38.3%.

On to `O=C(c1cc(C(F)(F)F)cc(C(F)(F)F)c1)N1CCC(N2CCC(=C3c4ccc(Cl)cc4CCn4ccnc43)CC2)CC1Cc1ccccc1` (stereo not shown) [Compound 32], for which the “% inhibition of the response to 10^-9 M substance P” value in experiment [1] (setting [3]) is given as 71.6%.

For `Cc1cc(C)cc(C(=O)N2CCC(N3CCC(=C4c5ccn(C)c5CCn5cc(C)nc54)CC3)CC2Cc2ccccc2)c1` (stereo not shown) [Compound 30], the “% inhibition of the response to 10^-9 M substance P” value in experiment [1] (setting [3]) came to 15.3%.

On to `O=C(c1ccccc1)N1CC[C@@H](N2CCC(C3c4ccccc4Cn4c3nc3ccccc34)CC2)C[C@@H]1Cc1ccccc1` (stereo partly shown) [Compound 75], for which the “% inhibition of the response to 10^-9 M substance P” value in experiment [1] (setting [3]) was 13.7%.

Turning to `O=C(c1cccc(C(F)(F)F)c1)N1CCC(N2CCC(C3c4ccccc4Cn4c3nc3ccccc34)CC2)CC1Cc1ccccc1` (stereo not shown) [Compound 74], the “% inhibition of the response to 10^-9 M substance P” value in experiment [1] (setting [3]) is 8.6%.

`Cc1ccc2c(c1)CCn1ccnc1C2=C1CCN([C@H]2CCN(C(=O)c3cc(C(F)(F)F)cc(C(F)(F)F)c3)[C@@H](Cc3ccccc3)C2)CC1` (relative stereo) [Compound 50]: in experiment [1] (setting [3]), the “% inhibition of the response to 10^-9 M substance P” value was 25%.

Take `O=C(c1ccc2ncsc2c1)N1CC[C@@H](N2CCC(C3c4ccccc4Cn4c3nc3ccccc34)CC2)C[C@@H]1Cc1ccccc1` (stereo partly shown) [Compound 102]: the “% inhibition of the response to 10^-9 M substance P” value in experiment [1] (setting [3]) amounted to 17%.

Regarding `Cc1cc(C)cc(C(=O)N2CCC(N3CCC(=C4c5cccc(C)c5CCn5ccnc54)CC3)CC2Cc2ccccc2)c1` (stereo not shown) [Compound 29], the “% inhibition of the response to 10^-9 M substance P” value in experiment [1] (setting [3]) was 8.1%.

For the compound `O=C(c1cc(C(F)(F)F)cc(C(F)(F)F)c1)N1CCC(N2CCC(C3c4ccccc4CCn4c3nc3ccccc34)CC2)CC1Cc1ccc(Cl)c(Cl)c1` (stereo not shown) [Compound 64], the “% inhibition of the response to 10^-9 M substance P” value in experiment [1] (setting [3]) came to 26.4%.

For `Cc1cc(C)cc(C(=O)N2CC[C@H](N3CCC(C4c5ccccc5Cn5c4nc4ccccc45)CC3)C[C@H]2Cc2ccccc2)c1` (stereo partly shown) [Compound 70], the “% inhibition of the response to 10^-9 M substance P” value in experiment [1] (setting [3]) is on record as 31.2%.

In the case of `O=C(c1ccco1)N1CC[C@@H](N2CCC(=C3c4ccccc4CCn4ccnc43)CC2)C[C@@H]1Cc1ccccc1` (relative stereo) [Compound 77], in experiment [1] (setting [3]), the “% inhibition of the response to 10^-9 M substance P” value came to 3.2%.

In the case of `Cc1cc(C)cc(C(=O)N2CCC(N3CCC(=C4c5ccccc5CCn5c(C)cnc54)CC3)CC2Cc2ccccc2)c1` (stereo not shown) [Compound 28], the “% inhibition of the response to 10^-9 M substance P” value in experiment [1] (setting [3]) is recorded as 37.4%.

As for `O=C(c1ccc2ncsc2c1)N1CCC(N2CCC(C3c4ccccc4Cn4c3nc3ccccc34)CC2)CC1Cc1ccccc1` (stereo not shown) [Compound 96], the “% inhibition of the response to 10^-9 M substance P” value in experiment [1] (setting [3]) is 17.3%.

For `O=C(c1ccc2ccccc2c1)N1CC[C@@H](N2CCC(C3c4ccccc4Cn4c3nc3ccccc34)CC2)C[C@@H]1Cc1ccccc1` (stereo partly shown) [Compound 98], in experiment [1] (setting [3]), the “% inhibition of the response to 10^-9 M substance P” value was determined as 23.2%.

Turning to `Cc1cc(C)cc(C(=O)N2CC[C@H](N3CCC(C4c5ccccc5CCn5c4nc4ccccc45)CC3)C[C@H]2Cc2ccccc2)c1` (stereo partly shown) [Compound 66], the “% inhibition of the response to 10^-9 M substance P” value in experiment [1] (setting [3]) is recorded as 56.6%.

`O=C(c1cccs1)N1CCC(N2CCC(C3c4ccccc4Cn4c3nc3ccccc34)CC2)CC1Cc1ccccc1` (stereo not shown) [Compound 91]: in experiment [1] (setting [3]), the “% inhibition of the response to 10^-9 M substance P” value is given as 9.2%.

As to `Cc1cc(C)cc(C(=O)N2CC[C@H](N3CCC(=C4c5ccccc5CCn5c4nc4ccccc45)CC3)C[C@H]2Cc2ccccc2)c1` (relative stereo) [Compound 46], in experiment [1] (setting [3]), the “% inhibition of the response to 10^-9 M substance P” value is given as 54.3%.

With `Cc1cc(C)cc(C(=O)N2CC[C@@H](N3CCC(C4c5ccccc5Cn5ccnc54)CC3)C[C@@H]2Cc2ccccc2)c1` (stereo partly shown) [Compound 109], in experiment [1] (setting [3]), the “% inhibition of the response to 10^-9 M substance P” value is 13.5%.

In the case of `Cc1cc(C)cc(C(=O)N2CC[C@H](N3CCC(=C4c5ccc(C)cc5CCn5ccnc54)CC3)C[C@@H]2Cc2ccccc2)c1` (relative stereo) [Compound 56], in experiment [1] (setting [3]), the “% inhibition of the response to 10^-9 M substance P” value came to 9.5%.

Consider `Cc1cc(C)cc(C(=O)N2CC[C@H](N3CCC(=C4c5ccccc5CCn5c(Cl)cnc54)CC3)C[C@H]2Cc2ccccc2)c1` (relative stereo) [Compound 44], for which the “% inhibition of the response to 10^-9 M substance P” value in experiment [1] (setting [3]) was 63.9%.

For the compound `Cc1cc(C)cc(C(=O)N2CC[C@H](N3CCC(=C4c5ccccc5CCn5c4nc4ccccc45)CC3)C[C@@H]2Cc2ccccc2)c1` (relative stereo) [Compound 45], in experiment [1] (setting [3]), the “% inhibition of the response to 10^-9 M substance P” value worked out at 7.9%.

`Cc1cc(C)cc(C(=O)N2CCC(N3CCC(C4c5ccccc5Cn5c4nc4ccccc45)CC3)CC2Cc2ccccc2)c1` (stereo not shown) [Compound 69]: the “% inhibition of the response to 10^-9 M substance P” value in experiment [1] (setting [3]) is given as 8%.

Turning to `O=C(c1ccc(Cl)c(Cl)c1)N1CC[C@@H](N2CCC(C3c4ccccc4Cn4c3nc3ccccc34)CC2)C[C@@H]1Cc1ccccc1` (stereo partly shown) [Compound 103], the “% inhibition of the response to 10^-9 M substance P” value in experiment [1] (setting [3]) was 8.3%.

`O=C(c1cc(C(F)(F)F)cc(C(F)(F)F)c1)N1CCC(N2CCC(C3c4ccccc4CCn4c3nc3ccccc34)CC2)CC1Cc1ccc(F)c(F)c1` (stereo not shown) [Compound 67]: the “% inhibition of the response to 10^-9 M substance P” value in experiment [1] (setting [3]) was 64.4%.

For the compound `O=C(c1cc(C(F)(F)F)cc(C(F)(F)F)c1)N1CC[C@H](N2CCC3(CC2)c2ccccc2CCn2ccnc23)C[C@@H]1Cc1ccccc1` (relative stereo) [Compound 117], the minimal effective dose was 2.5 mg/kg in experiment [2] (setting [4]); 2.5 mg/kg in experiment [2] (setting [5]); 2.5 mg/kg in experiment [2] (setting [6]); 40 mg/kg in experiment [2] (setting [7]); 10 mg/kg in experiment [2] (setting [8]).

As to `Cc1cc(C)cc(C(=O)N2CC[C@H](N3CCC(=C4c5ccccc5CCn5c(Cl)cnc54)CC3)C[C@@H]2Cc2ccccc2)c1` (relative stereo) [Compound 43], in experiment [1] (setting [3]), the “% inhibition of the response to 10^-9 M substance P” value was 16%.

Turning to `CC(C(=O)N1CCC(N2CCC(=C3c4ccccc4CCn4ccnc43)CC2)CC1Cc1ccccc1)c1ccccc1` (stereo not shown) [Compound 85], the “% inhibition of the response to 10^-9 M substance P” value in experiment [1] (setting [3]) came to 1.8%.

As for `Cc1cn2c(n1)C(=C1CCN([C@H]3CCN(C(=O)c4cc(C(F)(F)F)cc(C(F)(F)F)c4)[C@@H](Cc4ccccc4)C3)CC1)c1ccn(C)c1CC2` (relative stereo) [Compound 59], in experiment [1] (setting [3]), the “% inhibition of the response to 10^-9 M substance P” value amounted to 76.5%.

Turning to `O=C(c1ccc2ccccc2c1)N1CCC(N2CCC(C3c4ccccc4Cn4c3nc3ccccc34)CC2)CC1Cc1ccccc1` (stereo not shown) [Compound 92], the “% inhibition of the response to 10^-9 M substance P” value in experiment [1] (setting [3]) was 6.7%.

On to `CC(C(=O)N1CC[C@@H](N2CCC(C3c4ccccc4Cn4c3nc3ccccc34)CC2)C[C@@H]1Cc1ccccc1)c1ccccc1` (stereo partly shown) [Compound 99], for which, in experiment [1] (setting [3]), the “% inhibition of the response to 10^-9 M substance P” value amounted to 18.2%.

With `O=C(c1cc(C(F)(F)F)cc(C(F)(F)F)c1)N1CCC(N2CCC(C3c4ccccc4CCn4c3nc3ccccc34)CC2)CC1Cc1ccccc1` (stereo not shown) [Compound 12], the “% inhibition of the response to 10^-9 M substance P” value in experiment [1] (test compound concentration 3 × 10^-8 (unit not given)) stood at 93.2%.

Take `O=C(c1cc(C(F)(F)F)cc(C(F)(F)F)c1)N1CC[C@H](N2CCC(C3c4ccccc4CCn4c3nc3ccccc34)CC2)C[C@H]1Cc1ccc(F)c(F)c1` (stereo partly shown) [Compound 68]: the “% inhibition of the response to 10^-9 M substance P” value in experiment [1] (setting [3]) turned out to be 93.1%.

Turning to `O=C(c1cc(C(F)(F)F)cc(C(F)(F)F)c1)N1CC[C@H](N2CCC(=C3c4ccccc4CCn4c3nc3ccccc34)CC2)C[C@@H]1Cc1ccccc1` (relative stereo) [Compound 71], in experiment [1] (setting [3]), the “% inhibition of the response to 10^-9 M substance P” value was 53.1%.

Consider `O=C(c1cnc2ccccc2n1)N1CCC(N2CCC(C3c4ccccc4Cn4c3nc3ccccc34)CC2)CC1Cc1ccccc1` (stereo not shown) [Compound 93], for which, in experiment [1] (setting [3]), the “% inhibition of the response to 10^-9 M substance P” value stood at 3.1%.

Regarding `Cc1cc(C)cc(C(=O)N2CC[C@H](N3CCC(=C4c5ccccc5CCn5c4nc(CO)c5CO)CC3)C[C@@H]2Cc2ccccc2)c1` (relative stereo) [Compound 61], in experiment [1] (setting [3]), the “% inhibition of the response to 10^-9 M substance P” value was determined as 7.5%.

On to `Cc1c(C(=O)N2CC[C@@H](N3CCC(C4c5ccccc5Cn5c4nc4ccccc45)CC3)C[C@@H]2Cc2ccccc2)oc2ccccc12` (stereo partly shown) [Compound 101], for which the “% inhibition of the response to 10^-9 M substance P” value in experiment [1] (setting [3]) is reported as 11.8%.

On to `O=C(Nc1cc(C(F)(F)F)cc(C(F)(F)F)c1)N1CC[C@@H](N2CCC(=C3c4ccccc4CCn4ccnc43)CC2)C[C@@H]1Cc1ccccc1` (relative stereo) [Compound 80], for which the “% inhibition of the response to 10^-9 M substance P” value in experiment [1] (setting [3]) came to 10.9%.

As for `O=C(c1cc(C(F)(F)F)cc(C(F)(F)F)c1)N1CC[C@@H](N2CCC3(CC2)c2ccccc2CCn2ccnc23)C[C@@H]1Cc1ccccc1` (relative stereo) [Compound 118], the minimal effective dose in experiment [2] (setting [4]), in experiment [2] (setting [5]), in experiment [2] (setting [6]), in experiment [2] (setting [7]) and in experiment [2] (setting [8]) was 10 mg/kg in each case.
